Literature values as cited in patent US20040204467A1, “Use of 5HT3-receptor-antagonists” (priority 1998, published 2004).

Assays:
patients with CFS = conditions: after an acute application on patients with CFS
CFS patients = conditions: daily dose of 20 mg; also in patients with accompanying symptoms of depression

SMILES	rise of prolactin in the serum (patients with CFS)	result of treatment of CFS (CFS patients)
CCN[C@@H](C)Cc1cccc(C(F)(F)F)c1 [D-Feufluoroamin]	significantly increased rise of prolactin	–
CNCCC(Oc1ccc(C(F)(F)F)cc1)c1ccccc1 (centres unmarked) [fluoxetin]	–	negative in result
